Measured values published in patent publication US6579556B2, “Ambient stable beverage” (Lipton, division of Conopco, Inc., priority 2000, dated 2003).
Values after ≈ are worked out from the molar mass of the structure shown.

How the values were obtained:
Type in all cases: cell-based
[1] = tested on: yeast Saccharomyces cerevisiae X2180-1B; assay: Fungicidal activity / MIC at 50° C. versus 30° C., yeast survival in YEPD broth pH 3.4; conditions: for MIC50 / MIC: minimum inhibitory concentration; for MIC50 / MIC / fungicidal activity when heated to 50° C.: 50° C.; for Importance: rating as pasteurisation adjunct; for MIC: Saccharomyces cerevisiae, read-out: MIC50
Method: In the table the minimum inhibitory concentration (MIC) is given for each compound as well as the molecular weight (M.W.), the logPoct and a rating of its importance. […] The logPoct, that is the logarithm of the partition coefficient of the relevant compound in octanol and thus a measure of its […], was determined using […]™ software from the CHEMOFFICE ULRA ENHANCED 2000™ software package (version 5.5) that is commercially available from CambridgeSoft.
(§1) YEPD contained glucose, 20 g/l, peptone 20 g/l and yeast extract 10 g/l. Rows of 30 ml tubes containing 10 ml YEPD, pH 3.4, were equilibrated at the required temperature for 7 minutes in a water bath, before inoculation with 10^4 cells/ml of the yeast Saccharomyces cerevisiae X2180-1B. Tubes were held at temperature for 10 minutes before being cooled rapidly in cold water for 5 minutes. Tubes were then incubated for 48 hours at 25° C. to allow surviving yeasts to grow out, and form discrete colonies.
as §1, §1, §1

[2] = tested on: yeast Saccharomyces cerevisiae X2180-1B; assay: Ready to Drink tea experiments, yeast growth after heat + pasteurisation adjunct; conditions: 0-200 ppm, OD 600 nm at 14 days; for effect of heat+pasteurisation adjunct on yeast growth: Ready to Drink tea 0.14% tea pH 3.4, held at temperature 2 minutes; for effect of pasteurisation adjunct at low temperature on yeast growth: Ready to Drink tea 0.14% tea pH 3.4, low temperature
Method: Rows of 30 ml tubes containing 10 ml RTD tea, pH 3.4, were equilibrated at the required temperature for 7 minutes in a water bath, before inoculation with 10^4 cells/ml of the yeast Saccharomyces cerevisiae […]-1B. Tubes were held at temperature for 2 minutes before being cooled rapidly in cold water for 5 minutes. Tubes were then incubated for 14 days at 25° C. to allow surviving yeasts to grow out. At 14 days growth was measured by optical density at 600 nm in x11 diluted samples. […] Rows of 30 ml tubes containing 10 ml RTD tea, pH 3.4, were equilibrated at the required temperature for 7 minutes in a water bath, before inoculation with 10^4 cells/ml of the yeast Saccharomyces cerevisiae […]-1B. Tubes were held at temperature for 2 minutes before being cooled rapidly in cold water for 5 minutes. Tubes were then incubated for 14 days at 25° C. to allow surviving yeasts to grow out. At 14 days growth was measured by optical density at 600 nm in x11 diluted samples. […] Rows of 30 ml tubes containing 10 ml RTD tea, pH 3.4, were equilibrated at the required temperature for 7 minutes in a water bath, before inoculation with 10^4 cells/ml of the yeast Saccharomyces cerevisiae […]-1B. Tubes were held at temperature for 2 minutes before being cooled rapidly in cold water for 5 minutes. Tubes were then incubated for 14 days at 25° C. to allow surviving yeasts to grow out. At 14 days growth was measured by optical density at 600 nm in x11 diluted samples. […] Rows of 30 ml tubes containing 10 ml RTD tea, pH 3.4, were equilibrated at the required temperature for 7 minutes in a water bath, before inoculation with 10^4 cells/ml of the yeast Saccharomyces cerevisiae […]-1B. Tubes were held at temperature for 2 minutes before being cooled rapidly in cold water for 5 minutes. Tubes were then incubated for 14 days at 25° C. to allow surviving yeasts to grow out. At 14 days growth was measured by optical density at 600 nm in x11 diluted samples. […] Rows of 30 ml tubes containing 10 ml RTD tea, pH 3.4, were equilibrated at the required temperature for 7 minutes in a water bath, before inoculation with 10^4 cells/ml of the yeast Saccharomyces cerevisiae […]-1B. Tubes were held at temperature for 2 minutes before being cooled rapidly in cold water for 5 minutes. Tubes were then incubated for 14 days at 25° C. to allow surviving yeasts to grow out. At 14 days growth was measured by optical density at 600 nm in x11 diluted samples. […] Rows of 30 ml tubes containing 10 ml RTD tea, pH 3.4, were equilibrated at the required temperature for 7 minutes in a water bath, before inoculation with 10^4 cells/ml of the yeast Saccharomyces cerevisiae […]-1B. Tubes were held at temperature for 2 minutes before being cooled rapidly in cold water for 5 minutes. Tubes were then incubated for 14 days at 25° C. to allow surviving yeasts to grow out. At 14 days growth was measured by optical density at 600 nm in x11 diluted samples. […] Rows of 30 ml tubes containing 10 ml RTD tea, pH 3.4, were equilibrated at the required temperature for 7 minutes in a water bath, before inoculation with 10^4 cells/ml of the yeast Saccharomyces cerevisiae […]-1B. Tubes were held at temperature for 2 minutes before being cooled rapidly in cold water for 5 minutes. Tubes were then incubated for 14 days at 25° C. to allow surviving yeasts to grow out. At 14 days growth was measured by optical density at 600 nm in x11 diluted samples. […] Rows of 30 ml tubes containing 10 ml RTD tea, pH 3.4, were equilibrated at the required temperature for 7 minutes in a water bath, before inoculation with 10^4 cells/ml of the yeast Saccharomyces cerevisiae […]-1B. Tubes were held at temperature for 2 minutes before being cooled rapidly in cold water for 5 minutes. Tubes were then incubated for 14 days at 25° C. to allow surviving yeasts to grow out. At 14 days growth was measured by optical density at […] in x11 diluted samples.

[3] = tested on: bacteria, Gluconobacter sp. 222; assay: Bacteria experiments, growth after heat + pasteurisation adjunct; conditions: 0-100 ppm, growth measured visually at 14 days; for effect of heat+pasteurisation adjunct on bacteria: Ready to Drink tea or synthetic soft drink pH 3.4, 2 minutes at temperature; for effect of pasteurisation adjunct at low temperature on growth: Ready to Drink tea or synthetic soft drink pH 3.4, low temperature
Method: Rows of 30 ml tubes containing 10 ml soft drink, pH 3.4, were equilibrated at the required temperature for 7 minutes in a water bath, before inoculation with 10^4 cells/ml of the bacteria, Gluconobacter sp. 222. Tubes were held at temperature for 2 minutes before being cooled rapidly in cold water for 5 minutes. Tubes were then incubated for 14 days at 25° C. to allow surviving bacteria to grow out. At 14 days growth was measured visually.

Structure (SMILES)	MIC50 [1] [mM]	MIC50 ([1]; given as ppm) [ppm]	Importance [1]	effect of heat+pasteurisation adjunct on yeast growth [2]	effect of pasteurisation adjunct at low temperature on yeast growth [2]	MIC [1] [mM]	fungicidal activity at 30° C. [1]	fungicidal activity when heated to 50° C. [1]	effect of heat+pasteurisation adjunct on bacteria [3]	effect of pasteurisation adjunct at low temperature on growth [3]
CCCCCCCCCCCC=O [Lauric aldehyde]	0.2 (≈ 36.9 µg/mL)	36	High (High effects compounds, most preferred, generally showed at least a 5 fold decrease in MIC, minimum inhibitory concentration at 50 °C compared with 30° C.)	remarkable combined synergistic effect	little effect					
CC(=O)OC/C=C(\C)CCC=C(C)C [Geranyl acetate]			High (High effects compounds, most preferred, generally showed at least a 5 fold decrease in MIC, minimum inhibitory concentration at 50 °C compared with 30° C.)	remarkable combined synergistic effect	little effect	1				
CCCCCCCC=CC(=O)OCC [Ethyl 2-decenoate]			High (High effects compounds, most preferred, generally showed at least a 5 fold decrease in MIC, minimum inhibitory concentration at 50 °C compared with 30° C.)	remarkable combined synergistic effect	little effect	1 (≈ 198 µg/mL)				
CCCCCCCCCCOC(C)=O [Decyl acetate]			High (High effects compounds, most preferred, generally showed at least a 5 fold decrease in MIC, minimum inhibitory concentration at 50 °C compared with 30° C.)	remarkable combined synergistic effect	little effect	1	no fungicidal activity	significant fungicidal activity	remarkable combined synergistic effect	little effect
CCCCCCCCCCCC(=O)O [Lauric acid]			High (High effects compounds, most preferred, generally showed at least a 5 fold decrease in MIC, minimum inhibitory concentration at 50 °C compared with 30° C.)	remarkable combined synergistic effect	little effect		no fungicidal activity	significant fungicidal activity	remarkable combined synergistic effect	little effect
CC(=O)CC/C=C(\C)CCC=C(C)C [Geranylacetone]			High (High effects compounds, most preferred, generally showed at least a 5 fold decrease in MIC, minimum inhibitory concentration at 50 °C compared with 30° C.)	remarkable combined synergistic effect	little effect	0.5 (≈ 97.2 µg/mL)				
CCCCCCCCCCOC(=O)CC [Decyl propionate]			High (High effects compounds, most preferred, generally showed at least a 5 fold decrease in MIC, minimum inhibitory concentration at 50 °C compared with 30° C.)			50 (≈ 10700 µg/mL)				
CCCCCCC(=O)OCCCC [Butyl heptanoate]			High (High effects compounds, most preferred, generally showed at least a 5 fold decrease in MIC, minimum inhibitory concentration at 50 °C compared with 30° C.)			5 (≈ 931 µg/mL)				
CCCCCCCCC(=O)OCC [Ethyl nonanoate]			High (High effects compounds, most preferred, generally showed at least a 5 fold decrease in MIC, minimum inhibitory concentration at 50 °C compared with 30° C.)			10 (≈ 1860 µg/mL)				
CCCCCCCCCCCCCC=O [Myristaldehyde]			Mod			40 (≈ 8500 µg/mL)				
CCCCCCCCCCCCO [Lauric alcohol]	0.1 (≈ 18.6 µg/mL)	18.6	High (High effects compounds, most preferred, generally showed at least a 5 fold decrease in MIC, minimum inhibitory concentration at 50 °C compared with 30° C.)	remarkable combined synergistic effect	little effect					
CCCCCCCCCCCCCCCO [Pentadecanol]			Low			75 (≈ 17100 µg/mL)				
CCCCCCCCOC(=O)CCC [Octyl butyrate]			High (High effects compounds, most preferred, generally showed at least a 5 fold decrease in MIC, minimum inhibitory concentration at 50 °C compared with 30° C.)			40 (≈ 8010 µg/mL)				
CCCCCCCCCCCC(=O)OCCC(C)C [Isoamyl laurate]			Low							
